Reference: ChEMBL document CHEMBL2429778, “Hydroxyclerodanes from Salvia shannoni” (J Nat Prod, 2013)
Values after ≈ are worked out from the molar mass of the structure shown.

Assays:
Giardia intestinalis = experiment: Antiprotozoal activity against clinical isolates of Giardia lamblia IMSS:8901:1; format: functional, organism-based; details: Giardia duodenalis
Entamoeba histolytica = experiment: Antiprotozoal activity against clinical isolates of Entamoeba histolytica HM-1:IMSS; format: functional, organism-based
SK-LU-1 = experiment: Cytotoxicity against human SKLU1 cells after 48 hrs by SRB method; format: functional, cell-based; details: SK-LU-1, 48 h
Mus musculus = experiment: Antiinflammatory activity against TPA-induced CD-1 mouse ear edema model assessed as swelling per ear after 4 hrs relative to control; format: functional, organism-based
PC-3 = experiment: Cytotoxicity against human PC3 cells after 48 hrs by SRB method; format: functional, cell-based; details: PC-3, 48 h
K562 = experiment: Cytotoxicity against human K562 cells after 48 hrs by SRB method; format: functional, cell-based; details: K562, 48 h
U-251 = experiment: Cytotoxicity against human U251 cells after 48 hrs by SRB method; format: functional, cell-based; details: U-251, 48 h
HCT-15 = experiment: Cytotoxicity against human HCT15 cells after 48 hrs by SRB method; format: functional, cell-based; details: HCT-15, 48 h
MCF7 = experiment: Cytotoxicity against human MCF7 cells after 48 hrs by SRB method; format: functional, cell-based; details: MCF7, 48 h

| Compound | IC50 (Giardia intestinalis) [µg/mL] | IC50 (Entamoeba histolytica) [µg/mL] | IC50 (SK-LU-1) [µM] | IC50 (Mus musculus) [µmol] | IC50 (PC-3) [µM] | IC50 (K562) [µM] | IC50 (U-251) [µM] | IC50 (HCT-15) [µM] | IC50 (MCF7) [µM] |
| --- | --- | --- | --- | --- | --- | --- | --- | --- | --- |
| C[C@]12C[C@H](c3ccoc3)OC(=O)[C@H]1CC[C@@]13COC(=O)[C@H]1C[C@@H]1O[C@@H]1[C@]32O | 63.3 (≈ 169 µM) | 56.8 (≈ 152 µM) | > 50 | > 1 | > 50 | > 50 | > 50 | > 50 | > 50 |
| C[C@]12C[C@H](c3ccoc3)OC(=O)[C@@]1(O)CC[C@@]13COC(=O)[C@H]1CC=C[C@]32O | 85.8 (≈ 229 µM) | 79.7 (≈ 213 µM) | – | – | – | – | – | – | – |
| C[C@]12C[C@H](c3ccoc3)OC(=O)[C@H]1CC[C@@]13COC(=O)[C@H]1CC=C[C@]32O | 94.8 (≈ 265 µM) | 84.7 (≈ 236 µM) | > 50 | > 1 | > 50 | > 50 | > 50 | > 50 | > 50 |
| C[C@]12C[C@H](c3ccoc3)OC(=O)[C@@]1(O)CC[C@@]13COC(=O)[C@H]1CC=C[C@H]32 | 73.1 (≈ 204 µM) | 63.3 (≈ 177 µM) | > 50 | > 1 | > 50 | > 50 | > 50 | > 50 | > 50 |
| C[C@]12C[C@H](c3ccoc3)OC(=O)[C@@]1(O)CC[C@@]13COC(=O)[C@]1(O)CC=C[C@]23O | 82.1 (≈ 210 µM) | 76.3 (≈ 195 µM) | > 50 | > 1 | > 50 | > 50 | > 50 | > 50 | > 50 |
| C[C@]12C[C@H](c3ccoc3)OC(=O)[C@@]1(O)CC[C@@]13COC(=O)[C@@H]1C=CC[C@@H]32 | 42.4 (≈ 118 µM) | 56.5 (≈ 158 µM) | > 50 | > 1 | > 50 | > 50 | > 50 | > 50 | > 50 |
| C[C@]12C[C@H](c3ccoc3)OC(=O)[C@H]1CC[C@@]13COC(=O)[C@@H]1C=C[C@@H](O)[C@H]23 | 71.7 (≈ 200 µM) | 57.4 (≈ 160 µM) | – | – | – | – | – | – | – |
| Oc1cc(O)c2c(c1)O[C@H](c1ccc(O)c(O)c1)[C@@H](O)C2 [CIANIDANOL] | 33.9 (≈ 117 µM) | 65.6 (≈ 226 µM) | – | – | – | – | – | – | – |
| C[C@]12C[C@H](c3ccoc3)OC(=O)[C@@]1(O)CC[C@@]13COC(=O)C1=CC[C@H]1O[C@]132 [TEHUANINE G] | 86.4 (≈ 232 µM) | 71.2 (≈ 191 µM) | – | – | – | – | – | – | – |
| NCCc1ccc(O)cc1 [TYRAMINE] | 68.9 (≈ 502 µM) | 54.2 (≈ 395 µM) | – | – | – | – | – | – | – |
